Measurements published in patent US20230085307A1, “PYRIDAZINONE COMPOUND AND HERBICIDE” (NISSAN CHEMICAL CORPORATION, priority 2019, published 2023).

Columns and labels:
[1] = system: Japanese bulrush; assay: Test Example 1: herbicidal activity, application before weed generation under submerged conditions (Table 16, symbol B); format: in vivo, Japanese bulrush (Schoenoplectus juncoides); details: amount of applied herbicide 320 g/ha
Procedure, shortened: (§1)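 Submerged Wagner pots (alluvial soil, 4 cm water) sown with weed seeds and planted with 2.5-leaf rice seedlings; emulsifiable concentrate diluted in water applied to water surface on sowing day. Held in greenhouse at 25-30 °C; injury scored 0-5 by herbicidal rate after three weeks.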

[2] = system: oval-leafed pondweed; assay: Test Example 1: herbicidal activity, application before weed generation under submerged conditions (Table 16, symbol C); format: in vivo, oval-leafed pondweed (Monochoria vaginalis); details: amount of applied herbicide 320 g/ha
Procedure, shortened: as §1

[3] = system: late watergrass; assay: Test Example 2: herbicidal activity, application during weed generation under submerged conditions (Table 17, symbol A); format: in vivo, late watergrass (Echinochloa oryzicola); details: AAH 320 g/ha; application during weed generation, submerged conditions
Procedure, shortened: (§2)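 Steps: fill Wagner pots with alluvial soil; add water to give 4 cm depth; sow the species mixed; grow under glass at 25–30° C.; at 1–2 leaves apply water-diluted emulsion formulation to the water surface at a fixed herbicide amount; score after 3 weeks.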

[4] = system: Japanese bulrush; assay: Test Example 2: herbicidal activity, application during weed generation under submerged conditions (Table 17, symbol B); format: in vivo, Japanese bulrush (Schoenoplectus juncoides); details: AAH 320 g/ha; application during weed generation, submerged conditions
Procedure, shortened: as §2

[5] = system: barnyard grass; assay: Test Example 3: herbicidal effect by foliage application, Wagner pot (Table 18, symbol H); format: in vivo, barnyard grass (Echinochloa crus-galli); details: 320 g/ha
Procedure, shortened: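 Plants were sown in alluvial soil held under 0.1–0.5 cm standing water and grown 14 days in a greenhouse at 25–30 °C. An emulsifiable formulation, water-diluted to the set dose, was then sprayed onto the foliage, and effects were scored three weeks later using previously defined criteria.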

[6] = system: southern crabgrass; assay: Test Example 4: herbicidal effect by soil treatment (Table 19, symbol F); format: in vivo, southern crabgrass (Digitaria ciliaris); details: amount of applied herbicide 320 g/ha
Procedure, shortened: (§3)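 Pre-emergence style soil spray: seeds under ~1.5 cm sterilized diluvial soil received a uniform coat of emulsion diluted to the predetermined herbicide amount. Greenhouse 25–30° C; readout at week three on previously defined criteria.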

[7] = system: barnyard grass; assay: Test Example 4: herbicidal effect by soil treatment (Table 19, symbol H); format: in vivo, barnyard grass (Echinochloa crus-galli); details: amount of applied herbicide 320 g/ha
Procedure, shortened: as §3

[8] = system: blackgrass; assay: Test Example 4: herbicidal effect by soil treatment (Table 19, symbol J); format: in vivo, blackgrass (Alopecurus myosuroides); details: amount of applied herbicide 320 g/ha
Procedure, shortened: as §3

[9] = system: redroot pigweed; assay: Test Example 4: herbicidal effect by soil treatment (Table 19, symbol N); format: in vivo, redroot pigweed (Amaranthus retroflexus); details: amount of applied herbicide 320 g/ha
Procedure, shortened: as §3

[10] = system: chickweed; assay: Test Example 4: herbicidal effect by soil treatment (Table 19, symbol P); format: in vivo, common chickweed (Stellaria media); details: amount of applied herbicide 320 g/ha
Procedure, shortened: as §3

[11] = system: southern crabgrass; assay: Test Example 5: herbicidal effect by foliage application, plastic box (Table 20, symbol F); format: in vivo, southern crabgrass (Digitaria ciliaris); details: 320 g/ha; for F: southern crabgrass, herbicidal effect grade: foliage application, three weeks after application; for herbicidal effect on F: southern crabgrass (evaluation grade 0-5): foliage application after 14-day growth, evaluated three weeks after application
Procedure, shortened: (§4)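 Plants were sown into sterilized diluvial soil under about 1.5 cm cover and kept in a greenhouse at 25° C. to 30° C. Fourteen days on, foliage received an even spray of the diluted emulsion. Herbicidal or crop effect was judged three weeks afterwards.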

[12] = system: green foxtail; assay: Test Example 5: herbicidal effect by foliage application, plastic box (Table 20, symbol G); format: in vivo, green foxtail (Setaria viridis); details: 320 g/ha; for G: green foxtail, herbicidal effect grade: foliage application, three weeks after application; for herbicidal effect on G: green foxtail (evaluation grade 0-5): foliage application after 14-day growth, evaluated three weeks after application
Procedure, shortened: as §4

[13] = system: wild oat; assay: Test Example 5: herbicidal effect by foliage application, plastic box (Table 20, symbol I); format: in vivo, wild oat (Avena fatua); details: 320 g/ha; for I: wild oat, herbicidal effect grade: foliage application, three weeks after application; for herbicidal effect on I: wild oat (evaluation grade 0-5): foliage application after 14-day growth, evaluated three weeks after application
Procedure, shortened: as §4

[14] = system: blackgrass; assay: Test Example 5: herbicidal effect by foliage application, plastic box (Table 20, symbol J); format: in vivo, blackgrass (Alopecurus myosuroides); details: 320 g/ha; for J: blackgrass, herbicidal effect grade: foliage application, three weeks after application; for herbicidal effect on J: blackgrass (evaluation grade 0-5): foliage application after 14-day growth, evaluated three weeks after application
Procedure, shortened: as §4

[15] = system: redroot pigweed; assay: Test Example 5: herbicidal effect by foliage application, plastic box (Table 20, symbol N); format: in vivo, redroot pigweed (Amaranthus retroflexus); details: 320 g/ha; for N: redroot pigweed, herbicidal effect grade: foliage application, three weeks after application; for herbicidal effect on N: redroot pigweed (evaluation grade 0-5): foliage application after 14-day growth, evaluated three weeks after application
Procedure, shortened: as §4

[16] = system: lambsquarters; assay: Test Example 5: herbicidal effect by foliage application, plastic box (Table 20, symbol O); format: in vivo, lambsquarters (Chenopodium album); details: 320 g/ha; for O: lambsquarters, herbicidal effect grade: foliage application, three weeks after application; for herbicidal effect on O: lambsquarters (evaluation grade 0-5): foliage application after 14-day growth, evaluated three weeks after application
Procedure, shortened: as §4

[17] = system: persian speedwell; assay: Test Example 5: herbicidal effect by foliage application, plastic box (Table 20, symbol R); format: in vivo, Persian speedwell (Veronica persica); details: 320 g/ha; for R: persian speedwell, herbicidal effect grade: foliage application, three weeks after application; for herbicidal effect on R: persian speedwell (evaluation grade 0-5): foliage application after 14-day growth, evaluated three weeks after application
Procedure, shortened: as §4

Row | Structure (SMILES) | Herbicidal effect, B: Japanese bulrush [1] | Herbicidal effect, C: oval-leafed pondweed [2] | herbicidal effect rating, A: late watergrass [3] | herbicidal effect rating, B: Japanese bulrush [4] | herbicidal effect on barnyard grass (H) [5] | F: southern crabgrass, herbicidal effect grade [6] | H: barnyard grass, herbicidal effect grade [7] | J: blackgrass, herbicidal effect grade [8] | N: redroot pigweed, herbicidal effect grade [9] | P: chickweed, herbicidal effect grade [10] | F: southern crabgrass, herbicidal effect grade [11] | G: green foxtail, herbicidal effect grade [12] | I: wild oat, herbicidal effect grade [13] | J: blackgrass, herbicidal effect grade [14] | N: redroot pigweed, herbicidal effect grade [15] | O: lambsquarters, herbicidal effect grade [16] | R: persian speedwell, herbicidal effect grade [17] | Herbicidal effect by soil treatment, F: southern crabgrass [6] | Herbicidal effect by soil treatment, H: barnyard grass [7] | Herbicidal effect by soil treatment, J: blackgrass [8] | other results
1 | COc1ccccc1-c1sc2cc(OCC3CC3)ccc2c1-c1c(O)c(C)nn(C)c1=O [3-129] | 5 (Herbicidal rate of 90% or more (almost completely withered)) | 5 (Herbicidal rate of 90% or more (almost completely withered)) | 3 (Herbicidal rate of 40% or more and less than 70%) | 3 (Herbicidal rate of 40% or more and less than 70%) | 5 (Herbicidal rate of 90% or more (almost completely withered)) | 4 (Herbicidal rate of 70% or more and less than 90%) | 4 (Herbicidal rate of 70% or more and less than 90%) | 4 (Herbicidal rate of 70% or more and less than 90%) | 5 (Herbicidal rate of 90% or more (almost completely withered)) | 3 (Herbicidal rate of 40% or more and less than 70%) | 5 (Herbicidal rate of 90% or more (almost completely withered)) | 5 (Herbicidal rate of 90% or more (almost completely withered)) | 3 (Herbicidal rate of 40% or more and less than 70%) | 5 (Herbicidal rate of 90% or more (almost completely withered)) | 5 (Herbicidal rate of 90% or more (almost completely withered)) | 4 (Herbicidal rate of 70% or more and less than 90%) | 5 (Herbicidal rate of 90% or more (almost completely withered)) | – | – | – | –
2 | CCCC(=O)Oc1c(C)nn(C)c(=O)c1-c1c(-c2ccc(F)cc2OCC)sc2c(Cl)cccc12 [4-036] | 3 (Herbicidal rate of 40% or more and less than 70%) | 4 (Herbicidal rate of 70% or more and less than 90%) | 3 (Herbicidal rate of 40% or more and less than 70%) | 0 (Herbicidal rate of 5% or less (almost no effect)) | 5 (Herbicidal rate of 90% or more (almost completely withered)) | – | – | – | – | – | – | – | – | – | – | – | – | 4 (Herbicidal rate of 70% or more and less than 90%) | 3 (Herbicidal rate of 40% or more and less than 70%) | 0 (Herbicidal rate of 5% or less (almost no effect)) | Herbicidal effect by soil treatment, N: redroot pigweed [9]: 4 (Herbicidal rate of 70% or more and less than 90%); Herbicidal effect by soil treatment, P: chickweed [10]: 2 (Herbicidal rate of 20% or more and less than 40%); herbicidal effect on F: southern crabgrass (evaluation grade 0-5) [11]: 4 (Herbicidal rate of 70% or more and less than 90%); herbicidal effect on G: green foxtail (evaluation grade 0-5) [12]: 5 (Herbicidal rate of 90% or more (almost completely withered)); herbicidal effect on I: wild oat (evaluation grade 0-5) [13]: 0 (Herbicidal rate of 5% or less (almost no effect)); herbicidal effect on J: blackgrass (evaluation grade 0-5) [14]: 3 (Herbicidal rate of 40% or more and less than 70%); herbicidal effect on N: redroot pigweed (evaluation grade 0-5) [15]: 5 (Herbicidal rate of 90% or more (almost completely withered)); herbicidal effect on O: lambsquarters (evaluation grade 0-5) [16]: 2 (Herbicidal rate of 20% or more and less than 40%); herbicidal effect on R: persian speedwell (evaluation grade 0-5) [17]: 4 (Herbicidal rate of 70% or more and less than 90%)
3 | CCCOc1ccc(-c2sc3c(F)cccc3c2-c2c(OC(=O)CCC)c(C)nn(C)c2=O)cc1 [4-010] | 0 (Herbicidal rate of 5% or less (almost no effect)) | 3 (Herbicidal rate of 40% or more and less than 70%) | 4 (Herbicidal rate of 70% or more and less than 90%) | 0 (Herbicidal rate of 5% or less (almost no effect)) | 5 (Herbicidal rate of 90% or more (almost completely withered)) | – | – | – | – | – | – | – | – | – | – | – | – | 0 (Herbicidal rate of 5% or less (almost no effect)) | 0 (Herbicidal rate of 5% or less (almost no effect)) | 0 (Herbicidal rate of 5% or less (almost no effect)) | Herbicidal effect by soil treatment, N: redroot pigweed [9]: 4 (Herbicidal rate of 70% or more and less than 90%); Herbicidal effect by soil treatment, P: chickweed [10]: 3 (Herbicidal rate of 40% or more and less than 70%); herbicidal effect on F: southern crabgrass (evaluation grade 0-5) [11]: 0 (Herbicidal rate of 5% or less (almost no effect)); herbicidal effect on G: green foxtail (evaluation grade 0-5) [12]: 3 (Herbicidal rate of 40% or more and less than 70%); herbicidal effect on I: wild oat (evaluation grade 0-5) [13]: 0 (Herbicidal rate of 5% or less (almost no effect)); herbicidal effect on J: blackgrass (evaluation grade 0-5) [14]: 4 (Herbicidal rate of 70% or more and less than 90%); herbicidal effect on N: redroot pigweed (evaluation grade 0-5) [15]: 5 (Herbicidal rate of 90% or more (almost completely withered)); herbicidal effect on O: lambsquarters (evaluation grade 0-5) [16]: 5 (Herbicidal rate of 90% or more (almost completely withered)); herbicidal effect on R: persian speedwell (evaluation grade 0-5) [17]: 5 (Herbicidal rate of 90% or more (almost completely withered))
4 | CCCC(=O)Oc1c(C)nn(C)c(=O)c1-c1c(-c2ccc(OC)cc2)sc2cc(OC)ccc12 [3-069] | 3 (Herbicidal rate of 40% or more and less than 70%) | 2 (Herbicidal rate of 20% or more and less than 40%) | 0 (Herbicidal rate of 5% or less (almost no effect)) | 3 (Herbicidal rate of 40% or more and less than 70%) | 0 (Herbicidal rate of 5% or less (almost no effect)) | 0 (Herbicidal rate of 5% or less (almost no effect)) | 0 (Herbicidal rate of 5% or less (almost no effect)) | 0 (Herbicidal rate of 5% or less (almost no effect)) | 0 (Herbicidal rate of 5% or less (almost no effect)) | 3 (Herbicidal rate of 40% or more and less than 70%) | 0 (Herbicidal rate of 5% or less (almost no effect)) | 0 (Herbicidal rate of 5% or less (almost no effect)) | 0 (Herbicidal rate of 5% or less (almost no effect)) | 0 (Herbicidal rate of 5% or less (almost no effect)) | 5 (Herbicidal rate of 90% or more (almost completely withered)) | 5 (Herbicidal rate of 90% or more (almost completely withered)) | 5 (Herbicidal rate of 90% or more (almost completely withered)) | – | – | – | –
